Data: patent publication US5843750A, “Sorbitol kinase, process for producing the same, and substantially pure microorganism” (priority 1994, dated 1998)
Like-named read-outs stand apart in the source and are kept apart here.

Key:
[1] = system: sorbitol-6-phosphate dehydrogenase; format: biochemical, Comamonas sp. SY-77-1; settings: for Relateive activity: 10 min; for Relative activity (5): substrate specificity of sorbitol-6-phosphate dehydrogenase, substance used as substrate; for Effect on sorbitol-6-phosphate dehydrogenase activity (in words): 1 mM metal ions
Experimental: Reaction mixture 1 ml consisting of 0.2M Tris-HCl buffer solution (pH 8.0) 0.25 ml, 0.1M sorbitol-6-phosphate 0.2 ml, 10 mM NAD 0.1 ml, 100 U/ml diaphorase (Asahi Chemical Industry Co.) 0.05 ml, 0.25% NTB (nitrotetrazolium blue) 0.1 ml, 10% Triton X-100 0.01 ml and distilled water 0.29 ml was pre-heated at 37° C. for 1 minute. 0.02 ml of enzyme solution was added thereto and incubated for 10 minutes.
0.1N HCl 2 ml was added to stop the reaction, and within 5 minutes optical absorption of the reaction mixture was measured using pass length 1.0 cm cell at 550 nm (As). Optical density of the blank solution of distilled water 0.02 ml in place of the enzyme solution was measured by the same procedure (Ab). Enzyme activity was measured by the difference (As-Ab) between the optical density of the enzyme solution (As) and that of the blank (Ab). A unit of enzyme is defined as an enzyme amount which produces 1μ mole of reduced NAD at 37° C. for 1 minute. Equation is as follows.
Enzyme activity (U/ml)=(As-Ab)×0.795×enzyme dilution rate

sorbitol kinase [2] = biological target: T1, sorbitol kinase (Enterobacter ludwigii, UniProt A0AAX3LD49); format: biochemical, Erwinia sp. SK-472-20; parameters: SK-472-20; settings: for Relative activity as phosphate donor: activity for ATP (final concentration 2 mM) set as 100%
Experimental: One milliliter of a reaction mixture consisting of 0.2M Tris-HCl buffer solution (pH 8.5) 0.2 ml, 0.1M ATP 0.02 ml, 0.1M MgCl2 0.02 ml, 100 U/ml sorbitol-6-phosphate dehydrogenase (refer to referential example) 0.05 ml, 10 mM NAD 0.1 ml, 100 U/ml diaphorase (Asahi Chemical Ind. Co.) 0.05 ml, 0.25% NTB 0.1 ml, 1M sorbitol 0.1 ml, 10% Triton X-100 0.01 ml and distilled water 0.3 ml was pre-heated at 37° C. for 1 minute, and the enzyme solution 20 μl was added thereto, then the mixture was incubated for 10 minutes.
Reaction was terminated by adding 0.1N HCl 2 ml and optical density of the mixture was measured using 1.0 cm cell at 550 nm within 5 minutes (As). Also optical density of distilled water 20 μl in place of the enzyme solution was measured in the same manner as above as a blank test (Ab). Enzymatic activity is determined by difference in the absorption between the optical density of the enzyme solution (As) and the blank test (Ab), i.e. (As-Ab). A unit of enzyme activity is defined as an amount of enzyme which generate 1 μm of reduced NAD in one minutes at 37° C. and calculated by the following equation.
Enzyme activity (U/ml)=(As-AB)×0.795×dilution rate of enzyme

sorbitol kinase [3] = biological target: T1, sorbitol kinase; format: biochemical, Erwinia sp. SK-472-20 gene expressed in E.coli; parameters: no tag mentioned; settings: for Relative activity on substrate: sorbitol set at 100%
Experimental: A reaction mixture 1 ml consisting of 100 mM Tris-HCl buffer solution (pH 8.5), 2 mM ATP, 2 mM MgCl2, 5 unit/ml sorbitol-6-phosphatedehydrogenase (refer to referential example 3), 1 mM NAD, 5 units/ml diaphorase (Asahi Chem. Ind. Co.), 0.025% nitrotetrazolium blue, 100 mMD-sorbitol and 0.1% Triton X-100 was incubated with the aliqluot diluted sonicated microbial cells 20 μl at 37° C. for 10 minutes. Reaction was stopped by adding 0.1N HCl 2.0 ml and the optical absorption at 550 nm was measured for determination of sorbitol kinase activity. For control study, sonicated E.coli DH1 harboring pUC118 was treated by the same way as above to determine activity of sorbitol kinase. […] Accordingly, the transformant having sorbitol kinase activity was confirmed. […] SK-472-20, consequently the physico-chemical properties of expressed protein was confirmed.

[4] = 1 mM metal ion on sorbitol-6-phosphate dehydrogenase, None = 100
[5] = metal ion or chemical modifier 2 mM in the presence of 2 mM magnesium ion, None = 100
[6] = enzyme produced by transformant
[7] = substrate specificity of sorbitol kinase, substance used as substrate
[8] = sorbitol-6-phosphate dehydrogenase

T1 sequence (A0AAX3LD49 entry or part of it): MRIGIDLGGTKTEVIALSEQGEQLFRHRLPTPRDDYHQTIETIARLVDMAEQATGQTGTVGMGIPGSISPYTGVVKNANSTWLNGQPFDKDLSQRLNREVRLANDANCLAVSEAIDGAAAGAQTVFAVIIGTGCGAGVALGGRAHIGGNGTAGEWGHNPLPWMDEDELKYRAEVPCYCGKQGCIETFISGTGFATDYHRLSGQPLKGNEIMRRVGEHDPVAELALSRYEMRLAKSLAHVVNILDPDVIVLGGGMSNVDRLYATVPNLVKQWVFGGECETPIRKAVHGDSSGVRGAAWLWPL

For `[Ca+2].[Cl-].[Cl-]` [CaCl2], the Relateive activity [1, 4] was 100, the “Relative activity (%)” value (sorbitol kinase [2]; [5]) was 44.6% and the “Effect on enzyme activity (in words)” value (sorbitol kinase [3]; [6]) was “activated”.

For `OC[C@H]1O[C@@](CO)(O[C@H]2O[C@H](CO)[C@@H](O)[C@H](O)[C@H]2O)[C@@H](O)[C@@H]1O` [Saccharose], the “Relative activity (5)” value [1] was 0 and the “Relative activity on substrate” value (sorbitol kinase [3]; [6]) was 0%.

For `O=P(O)(O)OC1O[C@H](CO)[C@@H](O)[C@H](O)[C@H]1O` (some centres unmarked) [glucose-1-phosphate], the “Relative activity (5)” value [1] was 0.

For `O[C@H]1[C@H](O)[C@@H](O)[C@H](O)[C@@H](O)[C@H]1O` [Inositol], the “Relative activity on substrate” value (sorbitol kinase [3]; [6]) was 0%.

With `OC[C@H]1O[C@H](O[C@H]2[C@H](O)[C@@H](O)[C@H](O)O[C@@H]2CO)[C@H](O)[C@@H](O)[C@@H]1O` [Maltose] the “Relative activity on substrate” value (sorbitol kinase [3]; [6]) was 0%.

Compound `[Cl-].[Cl-].[Mg+2]` [MgCl2] has a Relateive activity [1, 4] of 100.

In the case of `OC[C@@H](O)[C@@H](O)[C@H](O)[C@H](O)CO` [Mannitol], the “Relative activity (5)” value [1] is reported as 0.

Glucose was tested, and the “Relative activity (5)” value [1] was 0, the “Relative activity (%)” value (sorbitol kinase [2]; [7]) was 0% and the “Relative activity on substrate” value (sorbitol kinase [3]; [6]) was 0%.

For `OC[C@H]1O[C@@H](O[C@H]2[C@H](O)[C@@H](O)C(O)O[C@@H]2CO)[C@H](O)[C@@H](O)[C@H]1O` (some centres unmarked) [Lactose], the “Relative activity (5)” value [1] was 0 and the “Relative activity on substrate” value (sorbitol kinase [3]; [6]) was 0%.

For `O=P(O)(O)OC[C@H]1OC(O)[C@H](O)[C@@H](O)[C@H]1O` (some centres unmarked) [galactose-6-phosphate], the “Relative activity (5)” value [1] was 0.

For `OC[C@@H](O)[C@@H](O)[C@H](O)[C@@H](O)CO` [Sorbitol], the “Relative activity on substrate” value (sorbitol kinase [3]; [6]) was 100%.

For `O=C(O)CN(CCN(CC(=O)O)CC(=O)O)CC(=O)O` [EDTA], the “Effect on sorbitol kinase activity (in words)” value (sorbitol kinase [2]) was “inhibited” and the “Effect on enzyme activity (in words)” value (sorbitol kinase [3]) was “inhibited”.

For Mannose, the “Relative activity (5)” value [1] was 0, the “Relative activity (%)” value (sorbitol kinase [2]; [7]) was 0% and the “Relative activity on substrate” value (sorbitol kinase [3]; [6]) was 0%.

Compound `[Cl][Mn][Cl]` [MnCl2] has a Relateive activity [1, 4] of 40.

In the case of `[Cl-].[K+]` [KCl], the Relateive activity [1, 4] is reported as 100, the “Effect on sorbitol kinase activity (in words)” value (sorbitol kinase [2]; 2 mM, Table 2) is reported as “activated” and the “Relative activity (%)” value (sorbitol kinase [2]; [5]) is reported as 180%.

For `[Cl-].[Cs+]` [CsCl], the Relateive activity [1, 4] was 100 and the “Relative activity (%)” value (sorbitol kinase [2]; [5]) was 85%.

`[Cl][Ni][Cl]` [NiCl2] was tested, and the Relateive activity [1, 4] was 100, the “Effect on sorbitol kinase activity (in words)” value (sorbitol kinase [2]; 2 mM, Table 2) was “inhibited” and the “Relative activity (%)” value (sorbitol kinase [2]; [5]) was 14.5%. For the same compound, the “Effect on enzyme activity (in words)” value (sorbitol kinase [3]; [6]) was “inhibited”.

In the case of `O=P(O)(O)OC[C@@H](O)[C@@H](O)[C@H](O)[C@@H](O)CO` [sorbitol-6-phosphate], the Km [1, 8] is reported as 2000 ± 500 µM and the “Relative activity (5)” value [1] is reported as 100.

`C=C(OP(=O)(O)O)C(=O)O` [phosphoenolpyruvate] was tested, and the “Utilization as phosphate donor” value (sorbitol kinase [2]; phosphoenolpyruvate used in place of ATP in the enzyme assay) was “No substantial utilization” and the “Utilization as phosphate donor” value (sorbitol kinase [3]; [6]) was “substantially not”.

`O=c1ccn([C@@H]2O[C@H](COP(=O)(O)OP(=O)(O)OP(=O)(O)O)[C@@H](O)[C@H]2O)c(=O)[nH]1` [UTP] was tested, and the “Relative activity as phosphate donor” value (sorbitol kinase [2]) was 3.6%.

Galactose was tested, and the “Relative activity (5)” value [1] was 0, the “Relative activity (%)” value (sorbitol kinase [2]; [7]) was 0% and the “Relative activity on substrate” value (sorbitol kinase [3]; [6]) was 0%.

For `O=C(CO)[C@@H](O)[C@H](O)[C@H](O)CO` [Fructose], the “Relative activity (5)” value [1] was 0 and the “Relative activity on substrate” value (sorbitol kinase [3]; [6]) was 0%.

In the case of Xylose, the “Relative activity (%)” value (sorbitol kinase [2]; [7]) is reported as 0%.

For `[Cl-].[Cl-].[Zn+2]` [ZnCl2], the Relateive activity [1, 4] was 6.

In the case of 2-deoxyglucose, the “Relative activity (%)” value (sorbitol kinase [2]; [7]) is reported as 0%.

With `[Cl-].[Li+]` [LiCl] the Relateive activity [1, 4] was 100 and the “Relative activity (%)” value (sorbitol kinase [2]; [5]) was 74.3%.

`NC(=O)c1ccc[n+]([C@@H]2O[C@H](COP(=O)([O-])OP(=O)(O)OC[C@H]3O[C@@H](n4cnc5c(N)ncnc54)[C@H](O)[C@@H]3O)[C@@H](O)[C@H]2O)c1` [NAD] showed a Km [1, 8] of 130 ± 50 µM.

In the case of `O=c1[nH]cnc2c1ncn2[C@@H]1O[C@H](COP(=O)(O)OP(=O)(O)OP(=O)(O)O)[C@@H](O)[C@H]1O` [ITP], the “Relative activity as phosphate donor” value (sorbitol kinase [2]) is reported as 40.5%.

With `[Cl-].[Na+]` [NaCl] the Relateive activity ([1]; sorbitol-6-phosphate dehydrogenase, 1000 µM) was 100 and the “Relative activity (%)” value (sorbitol kinase [2]) was 112%.

For `[Ba+2].[Cl-].[Cl-]` [BaCl2], the Relateive activity [1, 4] was 32.

In the case of `O=P(O)(O)OC[C@H]1OC(O)[C@H](O)[C@@H](O)[C@@H]1O` (some centres unmarked) [Glucose-6-phosphate], the “Relative activity (5)” value [1] is reported as 0.

In the case of `[Cl-].[Cl-].[Co+2]` [CoCl2], the Relateive activity [1, 4] is reported as 100, the “Effect on sorbitol kinase activity (in words)” value (sorbitol kinase [2]; 2 mM, Table 2) is reported as “inhibited” and the “Relative activity (%)” value (sorbitol kinase [2]; [5]) is reported as 17.3%. For the same compound, the “Effect on enzyme activity (in words)” value (sorbitol kinase [3]; [6]) was “inhibited”.

For `[N-]=[N+]=[N-].[Na+]` [NaN3], the “Relative activity (%)” value (sorbitol kinase [2]; [5]) was 123%.

`NC(=S)c1ccc[n+]([C@@H]2O[C@H](COP(=O)([O-])OP(=O)(O)OC[C@H]3O[C@@H](n4cnc5c(N)ncnc54)[C@H](O)[C@@H]3O)[C@@H](O)[C@H]2O)c1` [thio NAD] showed a Km [1, 8] of 140 ± 50 µM.

`Nc1ncnc2c1ncn2[C@@H]1O[C@H](COP(=O)(O)OP(=O)(O)OP(=O)(O)O)[C@@H](O)[C@H]1O` [ATP] was tested, and the “Relative activity as phosphate donor” value (sorbitol kinase [2]) was 100%.

With `O=P(O)(O)OC1O[C@H](CO)[C@H](O)[C@H](O)[C@H]1O` (some centres unmarked) [Galactose-1-phosphate] the “Relative activity (5)” value [1] was 0.

For `Nc1nc2c(ncn2[C@@H]2O[C@H](COP(=O)(O)OP(=O)(O)OP(=O)(O)O)[C@@H](O)[C@H]2O)c(=O)[nH]1` [GTP], the “Relative activity as phosphate donor” value (sorbitol kinase [2]) was 11.8%.

`[Cl][Pb][Cl]` [PbCl2] was tested, and the Relateive activity [1, 4] was 2 and the “Effect on sorbitol-6-phosphate dehydrogenase activity (in words)” value [1] was “Strong inhibition”.

With `[Cl][Cu][Cl]` [CuCl2] the Relateive activity [1, 4] was 0, the “Effect on sorbitol-6-phosphate dehydrogenase activity (in words)” value [1] was “Strong inhibition” and the “Effect on sorbitol kinase activity (in words)” value (sorbitol kinase [2]; 2 mM, Table 2) was “inhibited”. The “Relative activity (%)” value (sorbitol kinase [2]; [5]) was 0% and the “Effect on enzyme activity (in words)” value (sorbitol kinase [3]; [6]) was “inhibited”.

In the case of `O=C(COP(=O)(O)O)[C@@H](O)[C@H](O)[C@H](O)COP(=O)(O)O` [fructose-1,6-diphosphate], the “Relative activity (5)” value [1] is reported as 0.

With `OC[C@H]1O[C@H](O[C@H]2O[C@H](CO)[C@@H](O)[C@H](O)[C@H]2O)[C@H](O)[C@@H](O)[C@@H]1O` [Treharose] the “Relative activity (5)” value [1] was 0.
